Laboratory results from patent publication US5112615A, “Soluble hirudin conjugates” (New England Deaconess Hospital Corporation, priority 1990, dated 1992).

How the values were obtained:
blood = test: Thrombin time of blood containing inhibitor; conditions: 0.2 ATU/ml blood sample
Protocol: In addition, hirudin conjugated to a stable, soluble molecule increases hirudin stability in the bloodstream. For example, 0.1 anti-thrombin units (ATU) of hirudin conjugate standard/ml of blood increases normal thrombin time to 45 seconds. A blood sample containing 0.2 ATU of unconjugated hirudin/ml increases patient thrombin time to 90 seconds. Using this knowledge, the amount of hirudin in a patient's plasma can be calculated to be 0.15 ATU if the patient's thrombin time is determined to be 68 seconds.

[1] = test system: thrombin-mediated platelet aggregation; test: Inhibition of thrombin-mediated platelet aggregation and simultaneous ATP release (whole blood platelet aggregometer); assay type: cell-based; conditions: Thrombin 0.1 NIHU
Excerpt: Investigation of the biologic activity of hirudin covalently linked to albumin is examined by inhibiting thrombin-mediated platelet aggregation. A whole blood platelet aggregometer (Chronolog Corp., Havertown, PA) is used to measure platelet aggregation and simultaneous ATP release. Platelet aggregation is selected to quantify inhibition of thrombin events other than fibrin formation.

thrombin = thrombin (Homo sapiens, UniProt P00734); test: Kinetic evaluation of thrombin inhibition (Lineweaver-Burke and Dixon plot analyses); assay type: biochemical
Excerpt: Using a known amount of thrombin, a standard curve is constructed with known amount of hirudin or hirudin analog by adding hirudin to thrombin, and measuring residual thrombin activity using […] substrate S-2238. Thrombin inhibition by derivatized hirudin (hirudin-SPDP) or immobilized hirudin (the polyethylene terphthalate material with immobilized hirudin) is then compared to nonderivatized hirudin values by equating ED50 values using 10 NIH units/ml thrombin, and measuring residual thrombin activity.
Peak 3 conjugate material (shown in FIG. 4C and lane A in FIG. 5A) is evaluated by kinetic analysis. Kinetic evaluation of the ability of the peak 3 conjugate to inhibit thrombin activity is compared to hirudin alone. […] These determinations are made by Lineweaver-Burke and Dixon plot analyses. The inhibitor constant for hirudin is determined to be 1.7×10^-12. The inhibitor constant for the conjugate is 1.8×10^-11. There is a 10-fold loss in binding affinity when comparing the Ki values of hirudin to the conjugate, respectively. In a biologic or physiologic system, the different abilities of hirudin and conjugate to inhibit thrombin are insignificant.

hirudin
thrombin time (blood): 90 s | % Inh. ATP Release ([1]; inhibitor 0.12 ATU): 56% | % Inh. Plate. Aggreg. ([1]; inhibitor 0.12 ATU): 52% | ATP Release ([1]; inhibitor 0.12 ATU): 0.60 µM | Aggreg. OHMS/6 min. ([1]; inhibitor 0.12 ATU): 15.7 OHMS/6 min. | % Inh. ATP Release ([1]; inhibitor 1.15 ATU): 100% | % Inh. Plate. Aggreg. ([1]; inhibitor 1.15 ATU): 100% | ATP Release ([1]; inhibitor 1.15 ATU): 0 µM | Aggreg. OHMS/6 min. ([1]; inhibitor 1.15 ATU): 0 OHMS/6 min. | type of inhibition (thrombin): noncompetitive inhibitor of a linear mixed type
